pEC50, pIC50: −log10 of the molar value.
How the values were obtained:
primary human T-cells = assay: T-cell proliferation assay (CellTiter-Glo); assay type: cell-based; settings: Homo sapiens, T-cell, 120 h, CD3 condition; for Emax: 5 days, 20 μM reference compound A1 = 100%, read-out: Emax proliferation (% activation); for pEC50: proliferation after 5 days, CellTiter-Glo, read-out: Tcell Proliferation CD3 EC50
Method in brief: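 Expanded primary human T-cells (100k/well) on plates coated with CD3 antibody or PBS only, given a 5- or 6-point dose response (top 20 or 10 μM final, 3.333-fold steps, 0.2% DMSO). ATP measured by CellTiter-Glo 2.0 luminescence after 5 days. Normalized to DMSO and 20 μM reference A1 (100%); EC50 and Emax reported for CD3 conditions.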

DGKzeta = DGKzeta (Homo sapiens, UniProt Q13574); assay: In vitro DGK inhibition assay (ADP-Glo, liposomes), DGKzeta; assay type: biochemical; parameters: hDGKzeta(1-928)-N-His; His (N); made in house; host or cells: Sf21 insect cells (baculovirus); settings: 2 nM DGK ζ, 50 μM ATP, 125 uM DLG in liposomes, 1 hour reaction
DGKzeta, sequence (Q13574 whole entry): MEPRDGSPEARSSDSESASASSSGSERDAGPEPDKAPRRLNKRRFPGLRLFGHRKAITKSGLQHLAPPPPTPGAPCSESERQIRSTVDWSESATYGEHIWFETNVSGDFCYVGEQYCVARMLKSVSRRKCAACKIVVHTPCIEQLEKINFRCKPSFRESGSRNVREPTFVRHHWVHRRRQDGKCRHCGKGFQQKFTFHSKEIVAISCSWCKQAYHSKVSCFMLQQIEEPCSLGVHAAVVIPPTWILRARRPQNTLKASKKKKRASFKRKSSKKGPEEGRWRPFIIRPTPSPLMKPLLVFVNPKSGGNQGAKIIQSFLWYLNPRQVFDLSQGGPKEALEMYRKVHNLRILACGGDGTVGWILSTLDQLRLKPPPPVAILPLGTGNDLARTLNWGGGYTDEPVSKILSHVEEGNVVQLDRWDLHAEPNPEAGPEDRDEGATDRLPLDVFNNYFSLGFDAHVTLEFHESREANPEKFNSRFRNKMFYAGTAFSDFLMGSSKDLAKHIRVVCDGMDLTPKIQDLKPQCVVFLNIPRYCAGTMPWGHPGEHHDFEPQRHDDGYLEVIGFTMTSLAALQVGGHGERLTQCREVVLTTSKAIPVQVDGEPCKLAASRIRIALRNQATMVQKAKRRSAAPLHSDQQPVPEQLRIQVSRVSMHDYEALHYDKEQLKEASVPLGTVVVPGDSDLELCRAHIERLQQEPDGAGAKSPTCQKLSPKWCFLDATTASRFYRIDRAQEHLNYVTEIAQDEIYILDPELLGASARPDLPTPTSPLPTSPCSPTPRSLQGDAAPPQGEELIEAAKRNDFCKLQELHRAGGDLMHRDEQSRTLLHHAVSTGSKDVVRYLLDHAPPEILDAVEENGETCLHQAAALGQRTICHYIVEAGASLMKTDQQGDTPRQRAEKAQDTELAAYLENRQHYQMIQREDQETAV
Method in brief: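 DGKζ (2 nM) phosphorylated DLG presented in DLG/PS/PC liposomes (final DLG 125 μM) with 50 μM ATP for 1 hour. ADP formed was read by ADP-Glo luminescence. Compounds were tested as 11-point 1:3 dose responses in 2% final DMSO.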

DGKalpha = DGKalpha (Homo sapiens, UniProt P23743); assay: In vitro DGK inhibition assay (ADP-Glo, liposomes), DGKalpha; assay type: biochemical; parameters: hDGKalpha(1-735)-N-His; His (N); made in house; host or cells: Sf21 insect cells (baculovirus); settings: 4 nM DGK α, 25 μM ATP, 125 uM DLG in liposomes, 1 hour reaction
DGKalpha, sequence (P23743 whole entry): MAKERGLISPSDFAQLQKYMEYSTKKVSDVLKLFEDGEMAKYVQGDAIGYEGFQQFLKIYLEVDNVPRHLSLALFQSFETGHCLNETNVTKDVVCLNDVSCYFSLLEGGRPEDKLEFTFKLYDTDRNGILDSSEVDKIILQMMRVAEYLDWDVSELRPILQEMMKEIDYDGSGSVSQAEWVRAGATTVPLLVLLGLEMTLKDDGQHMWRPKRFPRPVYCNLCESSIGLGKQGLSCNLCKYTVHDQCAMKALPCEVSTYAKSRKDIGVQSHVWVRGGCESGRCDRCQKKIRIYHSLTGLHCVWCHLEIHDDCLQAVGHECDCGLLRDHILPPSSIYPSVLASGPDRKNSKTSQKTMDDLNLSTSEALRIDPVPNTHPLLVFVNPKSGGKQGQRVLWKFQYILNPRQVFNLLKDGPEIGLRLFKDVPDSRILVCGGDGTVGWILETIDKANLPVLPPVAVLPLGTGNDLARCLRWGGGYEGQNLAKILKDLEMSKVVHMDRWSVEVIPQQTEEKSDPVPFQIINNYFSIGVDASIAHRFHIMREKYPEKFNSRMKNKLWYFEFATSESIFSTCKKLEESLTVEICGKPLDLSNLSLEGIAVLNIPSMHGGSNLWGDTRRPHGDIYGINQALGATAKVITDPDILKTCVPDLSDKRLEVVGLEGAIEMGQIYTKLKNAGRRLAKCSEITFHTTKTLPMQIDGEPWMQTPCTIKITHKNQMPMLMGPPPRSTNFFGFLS
Method in brief: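 Full-length human DGKα (4 nM) or DGKζ (2 nM) from Sf21 cells, with DLG substrate at 125 uM in PS/PC liposomes and ATP at 25 μM (α) or 50 μM (ζ); 1 h reaction. ADP formed read by ADP-Glo luminescence; compounds 11-point, 1:3 dilutions from 10 mM, 2% DMSO final.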

Compound	pIC50 (DGKzeta)	pIC50 (DGKalpha)	Emax (primary human T-cells)	pEC50 (primary human T-cells)
COc1ccc(-c2ccc(CN3C(=O)[C@@H](N)CS(=O)(=O)c4ccc(-c5noc(C(C)(C)S(C)(=O)=O)n5)cc43)cc2)cc1 [Example 63, (3R)-3-amino-5-[[4-(4-methoxyphenyl)phenyl]methyl]-7-[5-(1-methyl-1-methylsulfonyl-ethyl)-1,2,4-oxadiazol-3-yl]-1,1-dioxo-2,3-dihydro-1λ6,5-benzothiazepin-4-one]	5.63	4.23	98%	7.04
CC(C)(c1nnc(-c2ccc3c(c2)N(Cc2ccc(OC(F)(F)F)cc2)C(=O)[C@@H](N)CS3(=O)=O)o1)S(C)(=O)=O [Example 64, (3R)-3-amino-7-[5-(1-methyl-1-methylsulfonyl-ethyl)-1,3,4-oxadiazol-2-yl]-1,1-dioxo-5-[[4-(trifluoromethoxy)phenyl]methyl]-2,3-dihydro-126,5-benzothiazepin-4-one]	5.72	5.49	98%	5.21
CN(C)S(=O)(=O)C(C)(C)c1nnc(-c2ccc3c(c2)N(Cc2ccc(-c4ccc(C(F)(F)F)cc4)cc2)C(=O)[C@@H](N)CS3(=O)=O)o1 [Example 65, 2-[5-[(3R)-3-amino-1,1,4-trioxo-5-[[4-[4-(trifluoromethyl)phenyl]phenyl]methyl]-2,3-dihydro-1λ6,5-benzothiazepin-7-yl]-1,3,4-oxadiazol-2-yl]-N,N-dimethyl-propane-2-sulfonamide]	5.08	< 4.20	155%	5.58
CS(=O)(=O)C1(c2nnc(-c3ccc4c(c3)N(Cc3ccc(Oc5ccccc5)cc3)C(=O)[C@@H](N)CS4(=O)=O)o2)CC1 [Example 66, (3R)-3-amino-7-[5-(1-methylsulfonylcyclopropyl)-1,3,4-oxadiazol-2-yl]-1,1-dioxo-5-[(4-phenoxyphenyl)methyl]-2,3-dihydro-1λ6,5-benzothiazepin-4-one]	5.94	4.97	144%	5.66
CC(C)(c1nnc(-c2ccc3c(c2)N(Cc2ccc(-c4ccc(C(F)(F)F)cc4)cc2)C(=O)[C@@H](N)CS3(=O)=O)o1)S(=O)(=O)N1CCCC1 [Example 67, (3R)-3-amino-7-[5-(1-methyl-1-pyrrolidin-1-ylsulfonyl-ethyl)-1,3,4-oxadiazol-2-yl]-1,1-dioxo-5-[[4-[4-(trifluoromethyl)phenyl]phenyl]methyl]-2,3-dihydro-1λ6,5-benzothiazepin-4-one]	4.30	< 4.20	142%	5.26
CS(=O)(=O)C1(c2nnc(-c3ccc4c(c3)N(Cc3ccc(Oc5ccccc5)cc3)C(=O)[C@@H](N)CS4(=O)=O)o2)CCC1 [Example 68, (3R)-3-amino-7-[5-(1-methylsulfonylcyclobutyl)-1,3,4-oxadiazol-2-yl]-1,1-dioxo-5-[(4-phenoxyphenyl)methyl]-2,3-dihydro-1λ6,5-benzothiazepin-4-one]	5.46	< 4.20	83%	5.64

Now those with a higher pIC50 (DGKzeta), led by results:

pIC50 (DGKzeta)	pIC50 (DGKalpha)	Compound	Emax (primary human T-cells)	pEC50 (primary human T-cells)
6.23	5.47	CC1(c2nnc(-c3ccc4c(c3)N(Cc3ccc(Oc5ccccc5)cc3)C(=O)[C@@H](N)CS4(=O)=O)o2)CCCS1(=O)=O (stereo partly drawn) [Example 58, (3R)-3-amino-7-[5-(2-methyl-1,1-dioxo-thiolan-2-yl)-1,3,4-oxadiazol-2-yl]-1,1-dioxo-5-[(4-phenoxyphenyl)methyl]-2,3-dihydro-1λ6,5-benzothiazepin-4-one]	112%	5.96
6.51	5.73	CC(C)(c1nc(-c2cc3c(cc2F)S(=O)(=O)C[C@H](N)C(=O)N3Cc2ccc(OCc3nc(C(F)(F)F)no3)cc2)no1)S(C)(=O)=O [Example 59, (3R)-3-amino-8-fluoro-7-[5-(1-methyl-1-methylsulfonyl-ethyl)-1,2,4-oxadiazol-3-yl]-1,1-dioxo-5-[[4-[[3-(trifluoromethyl)-1,2,4-oxadiazol-5-yl]methoxy]phenyl]methyl]-2,3-dihydro-1λ6,5-benzothiazepin-4-one]	185%	5.95
6.22	5.42	CC(C)(c1nnc(-c2ccc3c(c2)N(Cc2ccc(Oc4cccc(Br)c4)cc2)C(=O)[C@@H](N)CS3(=O)=O)o1)S(C)(=O)=O [Example 60, (3R)-3-amino-5-[[4-(3-bromophenoxy)phenyl]methyl]-7-[5-(1-methyl-1-methylsulfonyl-ethyl)-1,3,4-oxadiazol-2-yl]-1,1-dioxo-2,3-dihydro-1λ6,5-benzothiazepin-4-one]	119%	6.18
6.11	5.32	CC(C)(c1nnc(-c2ccc3c(c2)N(Cc2ccc(Oc4ccccc4)cc2)C(=O)[C@@H](N)CS3(=O)=O)o1)S(=O)(=O)C1CC1 [Example 61, (3R)-3-amino-7-[5-(1-cyclopropylsulfonyl-1-methyl-ethyl)-1,3,4-oxadiazol-2-yl]-1,1-dioxo-5-[(4-phenoxyphenyl)methyl]-2,3-dihydro-1λ6,5-benzothiazepin-4-one]	58%	5.34
6.57	5.97	COCC(C)(C)Oc1ccc(CN2C(=O)[C@@H](N)CS(=O)(=O)c3cc(F)c(-c4noc(C(C)(C)S(C)(=O)=O)n4)cc32)cc1 [Example 62, (3R)-3-amino-8-fluoro-5-[[4-(2-methoxy-1,1-dimethyl-ethoxy)phenyl]methyl]-7-[5-(1-methyl-1-methylsulfonyl-ethyl)-1,2,4-oxadiazol-3-yl]-1,1-dioxo-2,3-dihydro-benzothiazepin-4-one]	188%	5.86
6.08	6.76	CC(C)(c1nnc(-c2ccc3c(c2)N(Cc2ccc(-c4ccc(OC(F)(F)F)cn4)cc2)C(=O)[C@@H](N)CS3(=O)=O)o1)S(C)(=O)=O [Example 69, (3R)-3-amino-1,1-diketo-7-[5-(1-mesyl-1-methyl-ethyl)-1,3,4-oxadiazol-2-yl]-5-[4-[5-(trifluoromethoxy)-2-pyridyl]benzyl]-2,3-dihydro-1λ6,5-benzothiazepin-4-one]	91%	7.51
